Key:
[1] = system: relapsed or refractory (R/R) B-NHL; highly refractory large B-cell lymphoma; details: epcoritamab monotherapy, n=157, cited from earlier work
[2] = system: CD20-expressing Daudi cells; assay: Epcoritamab-induced T-cell-mediated cytotoxicity assay with lenalidomide-pretreated T cells; assay type: cell-based; details: T cells pre-treated with lenalidomide (5 or 50 μM) and anti-CD3 for 3 days, Daudi target cells, E:T ratio 2:1
Procedure: T cells were incubated with (5 or 50 μM) or without lenalidomide in the absence or presence of immobilized anti-CD3 for 3 days. […] Data shown are average percentages cytotoxicity ±SD of duplicates, normalized to medium control (no antibody, no lenalidomide).
(§1) Briefly, T cells were activated with immobilized anti-CD3 in the presence (5 or 50 μM) or absence of lenalidomide for 3 days. […] T cells that were activated in the presence or absence of lenalidomide were subsequently tested for their cytotoxic capacity in response to epcoritamab.

T cells = assay: T-cell activation with immobilized anti-CD3 in presence or absence of lenalidomide; assay type: cell-based; details: CD3 crosslinking with immobilized anti-CD3, lenalidomide 5 or 50 μM, 3 days; compared to no lenalidomide
Procedure: T cells were pre-incubated with assay medium or lenalidomide in the absence or presence of CD3 crosslinking by immobilized anti-CD3 for 3 days (as indicated on the x-axes), after which upregulation of CD69, CD25, PD-1 and LAMP-1 on CD4^+ and CD8^+ T cells was determined by flow cytometry. Data shown are geomean fluorescence intensities (FI) for four donors (each circle represents one condition for one donor). Pre-incubation conditions are shown on the x-axis.
as §1

[3] = highly refractory large B-cell lymphoma

Compound | complete response (CR) rate [1, 3] [%] | median duration of response (DOR) [1, 3] [months] | overall response rate (ORR) [1, 3] [%] | safety profile [1] | activity at lower epcoritamab concentrations [2] | maximum percent cytotoxicity ([2]; versus T cells without lenalidomide) | T-cell activation (upregulation of activation markers CD69, CD25 on the T cell surface, release of granzyme B and IFNγ) (T cells)
epcoritamab: IgG1 bispecific CD3×CD20 antibody; heavy/light chain pairs SEQ ID NOs: 24/25 and 26/27; CAS 2134641-34-0 | 39 | 12 | 63 | manageable safety profile | higher activity at lower epcoritamab concentrations | Higher maximum percent cytotoxicity | 
Nc1cccc2c1CN(C1CCC(=O)NC1=O)C2=O (stereo not shown) [lenalidomide, 3-(4-Amino-1-oxo-1,3-dihydro-2H-isoindol-2-yl) piperidine-2,6-dione] |  |  |  |  |  |  | increased T-cell activation

Reference: patent US20230241211A1, “BISPECIFIC ANTIBODY AGAINST CD3 AND CD20 IN COMBINATION THERAPY FOR TREATING DIFFUSE LARGE B-CELL LYMPHOMA” (GENMAB A/S, priority 2022, published 2023)
